The values that follow come from patent US11364282B2, “Compositions, uses and methods for treatment of infertility and subfertility” (LO.LI. PHARMA S.R.L., priority 2017, dated 2022).

As usually defined, the Cmax is the maximum level reached in the sampled fluid or tissue. In general, Tmax refers to the time at which the peak concentration occurs.

One series can be described thus: clinical. Particulars: female, human, in vivo. The procedure: (§1) Specifically, myoinositol plasma levels were tested in these non-responding patients; a mean value of 17±3.5 μmol/l myoinositol was observed. Successively, a treatment with 2 g myoinositol, 0.2 mg folic acid and 50 mg alpha lactalbumin was performed in doses of two powder sachets per day before meals during the next three months. Of the 7 myoinositol resistant patients after combined treatment with myoinositol and alpha lactalbumin, 5 of the original non-responders (i.e. 71% of the original non-responders) ovulated. […]

For series [1], the system named is women affected by idiopathic infertility. The experiment in a line: Clinical evaluation on women affected by idiopathic infertility: biochemical pregnancy (beta hCG assay). Particulars: first phase: 40 women; 2 g myoinositol + 0.2 mg folic acid (Inofolic), two sachets per day, 3 months. It is filed as in vivo, human. The text has this: The present study aims to develop an efficacious therapy in women suffering from idiopathic infertility based on the improved absorption of inositol, e.g. myoinositol, when administered in combination with alpha lactalbumin. Specifically, while treatment of idiopathic infertility with myoinositol alone correlates to an improvement in the disease in a significant number of women, there remain women who still fail to respond to treatment with myoinositol alone. The present inventors thus sought to determine whether the higher level of myoinositol absorption observed when administering myoinositol together with alpha lactalbumin might allow successful treatment of idiopathic infertility patients who had previously not responded to treatment with myoinositol alone. If so, then the treatment of idiopathic infertility with inositol in combination with alpha lactalbumin, e.g. myoinositol in combination with alpha lactalbumin, would represent a significant therapeutic advance, allowing treatment of idiopathic infertility in previously recalcitrant cases, thereby substantially extending the therapeutic benefit of inositol, e.g. myoinositol, in treating idiopathic infertility. The present study included 40 women affected by idiopathic infertility. Inclusion criteria were: women affected by idiopathic infertility as defined below, aged 30-40 years, who were not receiving any therapy with drugs which potentially influence ovulation. Patients were given a thorough evaluation and were tested for a number of diseases, as described in the following. Testing positive for any of these diseases tested sufficed to exclude a patient as being “idiopathically infertile”. Specifically, patients were excluded from this trial in the event they were diagnosed positive for any of: hyperprolactinemia, hypothyroidism, Cushing's syndrome, adrenal hyperplasia, obesity, polycystic ovary syndrome (PCOS) or anovulation. The person skilled in the art can routinely diagnose each of the above mentioned conditions. For example, hyperprolactinemia can be diagnosed when serum prolactin levels are found to be over 20 μg/L, as e.g. described in Serri et al., CMAJ, 2003, 169(6): 575-581. Hypothyroidism can be diagnosed when the serum TSH level is found to be over 4.5 mIU/L (Garber et al., CLINICAL PRACTICE GUIDELINES FOR HYPOTHYROIDISM IN ADULTS: COSPONSORED BY THE AMERICAN ASSOCIATION OF CLINICAL ENDOCRINOLOGISTS AND THE AMERICAN THYROID ASSOCIATION; Endocrine Practice vol. 18 No. 6, 2012). Cushing's syndrome can be diagnosed according to Nieman et al., J. Clin. Endocrinol. […] The primary readout was the achievement of biochemical pregnancy as assessed using an assay (HCG Combo Card, Shanghai Chemtron Biotech Co., Ltd., catalog.no. 6011C31-4) for beta human chorionic gonadotropin (beta hCG). […]

A further series relates to anovulatory PCOS women. The following applies: 4 g/day myoinositol; cited from earlier work.
A short description of series [2]: Pharmacokinetic evaluation in healthy subjects: myoinositol plus alpha lactalbumin (plasma myoinositol by GCMS). It is filed as in vivo. The following applies: both sexes, human, single oral dose in powder, 6 g myoinositol alone or plus 150 mg alpha lactalbumin, 15 healthy volunteers, mean. The text has this:
The present example describes a pharmacokinetic study combining the oral administration of myoinositol and alpha lactalbumin in healthy subjects. The study aims to determine whether the combination of myoinositol and alpha lactalbumin is able to increase the plasma level of myoinositol above that observed after administering myoinositol alone. The study involved 15 healthy volunteers, 6 men and 9 women. […] Subjects received orally 6 g of myoinositol in powder form and then, after a washout period of 7 days, 6 g of myoinositol and 150 mg alpha lactalbumin, also in powder form.

Series [3] relates to anovulatory PCOS patients. In words: Clinical evaluation on PCOS women: ovulation assessed by ultrasound examination. It is filed as in vivo, human. The following applies: two sachets per day.
Description: The present study aims to develop an efficacious therapy in women suffering from PCOS based on the improved absorption of inositol, e.g. myoinositol, when administered in combination with alpha lactalbumin. Specifically, while treatment of PCOS with myoinositol alone correlates to an improvement in the disease in a significant number of women, there remain women who still fail to respond to treatment with myoinositol alone. The present inventors thus sought to determine whether the higher level of myoinositol absorption observed when administering myoinositol together with alpha lactalbumin might allow successful treatment of PCOS patients who had previously not responded to treatment with myoinositol alone. If so, then the treatment of PCOS with inositol in combination with alpha lactalbumin, e.g. myoinositol in combination with alpha lactalbumin, would represent a significant therapeutic advance, allowing treatment of PCOS in previously recalcitrant cases, thereby substantially extending the therapeutic benefit of inositol, e.g. myoinositol, in treating PCOS.
The present study included 20 anovulatory PCOS patients.
Inclusion criteria were: age 20-35 years; PCOS according to Rotterdam ESHRE-ASRM consensus workshop group; anovulation and infertility >1 year. Indeed, according to Rotterdam criteria, PCOS was diagnosed performed if 2 out of the 3 following factors were fulfilled: a) oligo- or anovulation, b) clinical and/or biochemical signs of hyperandrogenism, and c) polycystic ovaries.
Patients were excluded in the event of other conditions causing ovulatory dysfunction, such as hyperprolactinemia or hypothyroidism, or androgen excess, such as adrenal hyperplasia or Cushing's syndrome, and also in the case of intake of other drugs that can potentially influence ovulation.
All the patients were given myoinositol (Inofolic®, Lo.Li. Pharma, Rome, Italy), containing 2 g myoinositol and 0.2 mg folic acid in dose of two sachets per day before meals, in order to induce ovulation.
Ovulation was assessed using ultrasound examination on days 12, 14 and 20 of the cycle. Treatment was performed for three months.
These 7 non-responders then became the subject of a second phase of the study, in which they received treatment with myoinositol in combination with alpha lactalbumin.
as §1

Where [4] appears, read: first phase: 20 anovulatory PCOS patients, 2 g myoinositol + 0.2 mg folic acid (Inofolic), three months.

The structures appear in SMILES notation.

Turning to `O[C@H]1[C@H](O)[C@@H](O)[C@H](O)[C@@H](O)[C@H]1O` [myoinositol], in “clinical”, the concentration at 3 months was 17 ± 3.5 µM and the “myoinositol plasma level in patients who responded positively” value worked out at 38 µmol/L. For the same compound, in the series “clinical” (3 months), the “MYOINOSITOL PLASMA LEVELS T3 mean (±SD)” value is reported as 17 (3.5) μmol/l. In addition, in series [1], the “Achieving biochemical pregnancy %” value worked out at 52.5%, the “Achieving biochemical pregnancy (number)” value is 21, the “Not achieving biochemical pregnancy %” value was 47.5% and the “Not achieving biochemical pregnancy (number)” value is on record as 19. The “non-responders (patients who did not ovulate after treatment)” value with anovulatory PCOS women is reported as 38.3%. In series [2], the Cmax turned out to be 98 µM and the Tmax was 3 h. Further, the “OVULATION T3 (number of patients)” value in series [3] (7 PCOS patients non-responsive to myoinositol, after 3 months of the treatment, combination: 2 g myoinositol, 0.2 mg folic acid, 50 mg alpha lactalbumin) worked out at 0. In series [3] (setting [4]), the “women resistant, did not ovulate (%)” value came to 35%; the “women resistant, did not ovulate (number of 20)” value is 7; the “women who ovulated (%)” value came to 65%; the “women who ovulated (number of 20)” value amounted to 13.
